Measured values reported in patent US4474945A, “Anthracycline antibiotics” (priority 1981, dated 1984).
Values after ≈ are worked out from the molar mass of the structure shown. Where two headings read alike, the source gives them in different places.

What was measured:
[1] = tested on: L1210 leukemia; assay: Therapeutic effect (survival prolongation) on CDF1 mice bearing L1210 leukemia; assay type: in vivo, mouse (CDF1 mice); conditions: for Survival prolongation rate (T/C %): L1210-bearing CDF1 mice, i.p. every day for 10 days, control = 100; for survival prolongation effect (in words): mice transplanted with leukemia cells
Procedure: The therapeutic effect of 2-hydroxyaclacinomycin B was studied on CDF1 mice bearing L1210 leukemia. From 24 hours after 1×10^5 L1210 cells/animal were intraperitoneally transplanted to CDF1 mice, 2-hydroxyaclacinomycin B was intraperitoneally given everyday for 10 days. The prolongation of the survival time was calculated relative to the control animals receiving physiological saline as 100. Table 1 compares the in vitro and in vivo activities and toxicities of 2-hydroxyaclacinomycins A, B, and N and aclacinomycin A.

[2] = tested on: mouse leukemia cells L1210; assay: Growth inhibition of cultured L1210 cells; assay type: cell-based; conditions: for IC50: Mus musculus; for inhibition of growth and nucleic acid synthesis of L1210 cells (in words): mouse leukemia cells L1210
Procedure: For determination of the 50% growth inhibition concentration (IC50), 5×10^4 L1210 cells/ml (final concentration) were inoculated into RPMI 1640 medium (Rosewell Park Memorial Institutes 1640 medium) containing 20% calf serum. The anthracycline compounds of the present invention were added to give a final concentrations from 0.01 μg/ml to 0.25 μg/ml, while the control contained no drug. After incubation at 37° C. in a carbon dioxide incubator, the cell counts of the test and control cultures were measured for calculation of the IC50 concentration of antibiotic.

[3] = tested on: DNA synthesis in L1210 cells; assay: DNA synthesis inhibition in cultured L1210 cells (14C-thymidine incorporation); assay type: cell-based; conditions: Mus musculus, 1 h, 60 minutes, 10% calf serum, 37° C., read-out: 50% Inhibition concentration (IC50), DNA synthesis inhibition
Procedure: (§1) Fifteen minutes after the anthracycline compounds of the present invention were added at varied concentrations, 0.05 μCi/ml (final concentration) of ^14 C-uridine or ^14 C-thymidine was added and cultivated at 37° C. for a further 60 minutes. The incorporation of the radioactive base was stopped by addition of 10% trichloroacetic acid. The acid-insoluble matters were recovered; washed three times with 10-5% trichloroacetic acid; and dissolved in formic acid.

[4] = tested on: RNA synthesis in L1210 cells; assay: RNA synthesis inhibition in cultured L1210 cells (14C-uridine incorporation); assay type: cell-based, mouse; conditions: for IC50: Mus musculus, 1 h, cultured L1210 cells, 14C-uridine, 60 minutes, 10% calf serum, 37° C., read-out: 50% Inhibition concentration (IC50), RNA synthesis inhibition
Procedure: as §1

[5] = compared with aclacinomycin A; European Publication No. 30255; cited from earlier work
[6] = cited from earlier work
[7] = tested on: Mice; assay: Acute toxicity, mice, i.p.
[8] = cultured L1210 cells, RPMI 1640 with 20% calf serum, 37° C., read-out: 50% Inhibition concentration (IC50), growth inhibition

| Compound | Survival prolongation rate (T/C %) ([1]; dose 0.63 mg/kg) | Survival prolongation rate (T/C %) ([1]; dose 1.25 mg/kg) | Survival prolongation rate (T/C %) ([1]; dose 2.5 mg/kg) | Survival prolongation rate (T/C %) ([1]; dose 5 mg/kg) | Survival prolongation rate (T/C %) ([1]; dose 7.5 mg/kg) | Survival prolongation rate (T/C %) ([1]; dose 10 mg/kg) | Survival prolongation rate (T/C %) ([1]; dose 12 mg/kg) | survival prolongation effect (in words) [1] | killing of mouse leukemia cells L1210 (in words) [2] | IC50 [2, 8] | inhibition of growth and nucleic acid synthesis of L1210 cells (in words) [2] | IC50 [3] | IC50 [4] | RNA synthesis versus DNA synthesis inhibition (in words) [4] | antitumor activity (in words) [5] | cardio-toxicity (in words) ([6]; compared with aclacinomycin A, European Publication No. 30255) | Toxicity (acute) [7] | antitumor activity (in words) ([1]; mouse, in vivo) | IC50 ([2]; L1210, read-out: 50% Inhibition concentration (IC50), growth inhibition) | toxicity and cardio-toxicity among hitherto-developed anthracycline antibiotics (in words) ([6]; compared with hitherto-developed anthracycline antibiotics) |
| --- | --- | --- | --- | --- | --- | --- | --- | --- | --- | --- | --- | --- | --- | --- | --- | --- | --- | --- | --- | --- |
| CCC1(O)CC(OC2CC(N(C)C)C(OC3CC(O)C(OC4CCC(=O)C(C)O4)C(C)O3)C(C)O2)c2c(cc3c(c2O)C(=O)c2c(O)cc(O)cc2C3=O)C1C(=O)OC (centres unmarked) [2-Hydroxyaclacinomycin A] | 124% | 148% | 176% | 218% | 220% | 158% | 120% | excellent survival prolongation effect | kill mouse leukemia cells L1210 at a low concentration | 0.04 µg/mL (≈ 0.0483 µM) | markedly inhibit the growth and the nucleic acid synthesis | 0.85 µg/mL (≈ 1.03 µM) | 0.14 µg/mL (≈ 0.169 µM) | inhibit RNA synthesis more specifically than DNA synthesis | stronger antitumor activity | less cardio-toxic, than aclacinomycin A | 50.0 | – | – | – |
| CCC1(O)CC(OC2CC(N(C)C)C(OC3CC4OC5CC(=O)C(C)OC5OC4C(C)O3)C(C)O2)c2c(cc3c(c2O)C(=O)c2c(O)cc(O)cc2C3=O)C1C(=O)OC (centres unmarked) [2-Hydroxyaclacinomycin B, 2-hydroxyaclacinomycin B] | 110% | 131% | 153% | 200% | 226% | 139% | 113% | excellent survival prolongation effect | kill mouse leukemia cells L1210 at a low concentration | – | markedly inhibit the growth and the nucleic acid synthesis | 1 µg/mL (≈ 1.21 µM) | 0.22 µg/mL (≈ 0.266 µM) | inhibit RNA synthesis more specifically than DNA synthesis | – | – | 50.0 | marked antitumor activity | 0.03 µg/mL (≈ 0.0363 µM) | – |
| CCC1(O)CC(OC2CC(N(C)C)C(OC3CC(O)C(OC4CCC(O)C(C)O4)C(C)O3)C(C)O2)c2c(cc3c(c2O)C(=O)c2c(O)cc(O)cc2C3=O)C1C(=O)OC (centres unmarked) [2-Hydroxyaclacinomycin N, 2-hydroxyaclacinomycin N] | 109% | 128% | 148% | 202% | 219% | 144% | 108% | excellent survival prolongation effect | kill mouse leukemia cells L1210 at a low concentration | 0.04 µg/mL (≈ 0.0482 µM) | markedly inhibit the growth and the nucleic acid synthesis | 1.18 µg/mL (≈ 1.42 µM) | 0.18 µg/mL (≈ 0.217 µM) | inhibit RNA synthesis more specifically than DNA synthesis | – | – | 45.7 | – | – | – |
| CCC1(O)CC(OC2CC(N(C)C)C(OC3CC(O)C(OC4CCC(=O)C(C)O4)C(C)O3)C(C)O2)c2c(cc3c(c2O)C(=O)c2c(O)cccc2C3=O)C1C(=O)OC (centres unmarked) [Aclacinomycin A, reference compound] | 107% | 125% | 186% | 196% | 123% | Toxic | – | – | – | 0.01 µg/mL (≈ 0.0123 µM) | – | 0.3 µg/mL (≈ 0.37 µM) | 0.04 µg/mL (≈ 0.0493 µM) | – | – | – | 22.6 | – | – | the least toxic and cardio-toxic among the hitherto-developed anthracycline antibiotics |
